# Several values for one entry are separate records, joined by “and”; a condition that tells them apart may be missing. Identical values can stand only once.
# Test: Metal exchange reactions with Cu(II) followed by UV-Vis as a function of pH
# Assay type: physicochemical
# Description: Metal exchange reactions occurring with Cu(II) studied as a function of pH: a more detailed dissociation kinetic study was performed by using the Cu(II) ion. Metal exchange reactions occurring with Cu(II) were followed by UV-Vis as a function of the pH (in the pH range of 3.44–4.97) and metal ion concentration (20- and 40-fold excess of Cu(II) was applied), in order to evaluate the rates of spontaneous (k0 rate constant) and/or proton assisted (k1 rate constant) and/or metal ion provoked dissociation (kM).
# As it can be seen in Figure 4, the rate constants (kobs) are proportional to the H^+ ion concentration, while they slightly decrease with the increasing Cu(II) concentration. Therefore, one can assume that [Mn(3,9-OPC2A)] dissociates by following spontaneous (the positive value of the intercept with the y axis) and proton assisted pathways, while Cu(II) is involved in the formation of a dinuclear intermediate with a relatively low stability [Mn(3,9-OPC2A)Cu]^2+, which is a “dead-end” complex (i.e., its formation reduces the concentration of the reactive protonated species, thereby slowing down the reaction). The dissociation pathways followed by [Mn(3,9-OPC2A)] can be accounted for by Equation (1), where [Mn(L)]t is the total concentration of the Mn(II) complex, and the k0, kH, and kM are the rate constants characterizing the spontaneous, the proton and metal ion assisted pathways, respectively. (1) −d[Mn(L)]/dt=kobs[Mn(L)]t=k0[Mn(L)]+kH[Mn(HL)]+kHHMnH2L+kM[Mn(L)Cu]
# Using the expressions for the stability and protonation constants of the complexes, and that of the dinuclear intermediate [Mn(L)Cu], one can derive Equation (1) (in this expression k1 = kH × KMnL×H; k2 = kH^H × KMnL×H; × KMnLH×H; k3 = kM × KMnL×Cu; where KMnL×H; and KMnLH×H are the protonation constants of [Mn(3,9-OPC2A)] and KMnL×Cu is the stability constant of the dinuclear [Mn(3,9-OPC2A)Cu]^2+ intermediate, which is used for the fitting of the kobs rate data—the proton assisted dissociation pathways involving a diprotonated intermediate, characterized k2, play a negligible role in the dissociation of the [Mn(3,9-OPC2A)] complex under the experimental conditions used for kinetic studies. (2) kobs=k0+k1H^+/1+KHH^++KMCu^2+
# Metal exchange reactions occurring between the complex and Cu(II) (in the presence of a 20- and 40-fold excess, to ensure pseudo-first-order conditions) was investigated at 25 °C and 0.15 M NaCl ionic strength, by using a JASCO V-760 UV-VIS spectrophotometer at 290 nm. […] The values of the pseudo-first-order rate constants (kobs) were determined using the following equation: At = Av + (A0 − Av)e^kobs×t, where At is the absorbance at time t, A0 is the absorbance of the reactants, and Av is the absorbance of the products.
structure (smiles),measurement,setting,value
"O=C([O-])CN1CCOCCN(CC(=O)[O-])Cc2cccc(n2)C1.[Mn+2] [[Mn(3,9-OPC2A)]]",t1/2 (h) at pH = 7.4,"extrapolated to pH = 7.4 from Cu(II) exchange rate constants, calculated with the use of k0 value, cZn(II) = 1 × 10^−5 M",21.9 h
same,k1,"proton assisted dissociation, T = 25 °C, I = 0.15 M NaCl",2.81 ± 0.07 M⁻¹ s⁻¹ and 2.81 M⁻¹ s⁻¹
same,k0,"spontaneous dissociation, T = 25 °C, I = 0.15 M NaCl, to be treated as higher limit",(8.6 ± 1.1) × 10^−6 s^−1
same,KML x Cu,"stability constant of dinuclear intermediate, T = 25 °C, I = 0.15 M NaCl",7 ± 4
